This note sets out measurements from US11660293B2, “Substituted 2-azabicyclo[3.1.1]heptane and 2-azabicyclo[3.2.1]octane derivatives as orexin receptor antagonists” (Chronos Therapeutics Limited, priority 2017, dated 2023).

For experiment [1], the target named is human Orexin type 1 receptors (Homo sapiens (Human), UniProt O43613). The experiment can be described thus: Scintillation Proximity Assay (SPA) binding assay, [3H]SB-674042 displacement, CHO-hOX1 membranes.
Experiment [2] deals with human Orexin type 2 receptors (Homo sapiens (Human), UniProt O43614). The experiment can be described thus: Scintillation Proximity Assay (SPA) binding assay, [3H]EMPA displacement, HEK-hOX2 membranes.
Sequence of human Orexin type 2 receptors (O43614 whole entry): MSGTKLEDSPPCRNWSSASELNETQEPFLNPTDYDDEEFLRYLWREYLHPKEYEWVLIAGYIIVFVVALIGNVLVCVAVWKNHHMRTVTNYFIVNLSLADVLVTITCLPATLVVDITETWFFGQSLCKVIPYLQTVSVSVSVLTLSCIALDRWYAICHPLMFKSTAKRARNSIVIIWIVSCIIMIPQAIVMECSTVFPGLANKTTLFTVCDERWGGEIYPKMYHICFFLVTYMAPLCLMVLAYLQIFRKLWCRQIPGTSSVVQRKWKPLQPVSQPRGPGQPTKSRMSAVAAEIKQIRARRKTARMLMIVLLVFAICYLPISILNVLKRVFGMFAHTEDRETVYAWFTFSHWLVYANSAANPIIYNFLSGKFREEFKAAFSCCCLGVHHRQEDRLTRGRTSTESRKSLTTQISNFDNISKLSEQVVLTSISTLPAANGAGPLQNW

Sequence of human Orexin type 1 receptors (O43613 whole entry): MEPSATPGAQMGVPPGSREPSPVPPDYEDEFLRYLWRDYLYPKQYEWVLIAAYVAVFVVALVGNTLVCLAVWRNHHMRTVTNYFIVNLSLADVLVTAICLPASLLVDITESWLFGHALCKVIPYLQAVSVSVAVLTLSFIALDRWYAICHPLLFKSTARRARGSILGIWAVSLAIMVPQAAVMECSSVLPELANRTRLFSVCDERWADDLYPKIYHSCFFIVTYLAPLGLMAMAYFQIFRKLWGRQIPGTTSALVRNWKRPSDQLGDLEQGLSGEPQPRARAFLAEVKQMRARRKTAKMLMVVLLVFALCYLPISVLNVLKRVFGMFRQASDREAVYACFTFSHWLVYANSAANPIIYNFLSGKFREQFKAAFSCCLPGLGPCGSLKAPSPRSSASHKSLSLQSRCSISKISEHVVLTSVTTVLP

Regarding `Cc1ccc(-n2nccn2)c(C(=O)N2C3CC(C3)[C@@H](C)C2COc2ccc(F)cc2)c1` (stereo partly drawn) [Example 97, cis-3-[(4-fluorophenoxy)methyl]-4-methyl-2-[5-methyl-2-(2H-1,2,3-triazol-2-yl)benzoyl]-2-azabicyclo[3.1.1]heptane], the “OX1 pKi (SPA binding)” value in experiment [1] (Table 1, [3H]SB-674042 2 nM) is given as 7.74. For the same compound, the “OX2 pKi (SPA binding)” value in experiment [2] (Table 1, [3H]EMPA 2 nM) was 6.51.

On to `Cc1ccc(-n2nccn2)c(C(=O)N2C3CC(C3)[C@@H](C)C2CNc2cncc(C(F)(F)F)n2)n1` (mixture of isomers) [Example 217, cis-N-({4-methyl-2-[6-methyl-3-(2H-1,2,3-triazol-2-yl)pyridine-2-carbonyl]-2-azabicyclo[3.1.1]heptan-3-yl}methyl)-6-(trifluoromethyl)pyrazin-2-amine], for which the “OX1 pKi (SPA binding)” value in experiment [1] (Table 2, [3H]SB-674042 2 nM) turned out to be 6.85. Further, the “OX2 pKi (SPA binding)” value in experiment [2] (Table 2, [3H]EMPA 2 nM) was found to be 5.29.

As to `Cc1ccc(-n2nccn2)c(C(=O)N2C3CC(C3)[C@@H](C)C2CNc2ncc(C(F)(F)F)cn2)n1` (mixture of isomers) [Example 193, cis-N-({4-methyl-2-[6-methyl-3-(2H-1,2,3-triazol-2-yl)pyridine-2-carbonyl]-2-azabicyclo[3.1.1]heptan-3-yl}methyl)-5-(trifluoromethyl)pyrimidin-2-amine], in experiment [1] (Table 2, [3H]SB-674042 2 nM), the “OX1 pKi (SPA binding)” value is on record as 7.57. Further, the “OX2 pKi (SPA binding)” value in experiment [2] (Table 2, [3H]EMPA 2 nM) amounted to 4.64.

For `Cc1nc(C(=O)N2C(COc3ccc(F)cc3)CC3CC2C3)c(-c2ccccc2F)s1` (centres unmarked) [Example 40], in experiment [1] (Table 1, [3H]SB-674042 2 nM), the “OX1 pKi (SPA binding)” value came out at 7.33. Further, the “OX2 pKi (SPA binding)” value in experiment [2] (Table 1, [3H]EMPA 2 nM) is listed as 6.19.

For `Cc1ccc(-n2nccn2)c(C(=O)N2C3CC(C3)[C@@H](C)C2CNc2nc3ccccc3o2)n1` (stereo in doubt) [Example 225, cis-N-({4-methyl-2-[6-methyl-3-(2H-1,2,3-triazol-2-yl)pyridine-2-carbonyl]-2-azabicyclo[3.1.1]heptan-3-yl}methyl)-1,3-benzoxazol-2-amine], the “OX1 pKi (SPA binding)” value in experiment [1] (Table 2, [3H]SB-674042 2 nM) turned out to be 8.32. Further, in experiment [2] (Table 2, [3H]EMPA 2 nM), the “OX2 pKi (SPA binding)” value is listed as 5.22.

For `Cc1nc(C(=O)N2C(COc3nc4ccc(F)cc4s3)CC3CC2C3)c(-c2ccccc2)s1` (centres unmarked) [Example 54], the “OX1 pKi (SPA binding)” value in experiment [1] (Table 1, [3H]SB-674042 2 nM) came to 7.77. For the same compound, in experiment [2] (Table 1, [3H]EMPA 2 nM), the “OX2 pKi (SPA binding)” value was found to be 7.03.

As to `Cc1ccc(-n2nccn2)c(C(=O)N2C3CC(C3)[C@@H](C)C2CNc2cnc3cc(F)ccc3n2)n1` (mixture of isomers) [Example 198, cis-6-fluoro-N-({4-methyl-2-[6-methyl-3-(2H-1,2,3-triazol-2-yl)pyridine-2-carbonyl]-2-azabicyclo[3.1.1]heptan-3-yl}methyl)quinoxalin-2-amine], the “OX1 pKi (SPA binding)” value in experiment [1] (Table 2, [3H]SB-674042 2 nM) turned out to be 8.07. The “OX2 pKi (SPA binding)” value in experiment [2] (Table 2, [3H]EMPA 2 nM) is 6.27.

`C[C@H]1C2CC(C2)N(C(=O)c2cc(F)ccc2-n2nccn2)C1COc1ccc(F)cc1` (mixture of isomers) [Example 128, trans-2-[5-fluoro-2-(2H-1,2,3-triazol-2-yl)benzoyl]-3-{(4-fluorophenoxy)methyl]-4-methyl-2-azabicyclo[3.1.1]heptane]: the “OX1 pKi (SPA binding)” value in experiment [1] (Table 2, [3H]SB-674042 2 nM) is given as 6.85. Besides, the “OX2 pKi (SPA binding)” value in experiment [2] (Table 2, [3H]EMPA 2 nM) is given as 5.61.

Turning to `Cc1cnc(-n2nccn2)c(C(=O)N2C3CC(C3)[C@@H](C)C2COc2ccc(F)cc2)n1` (mixture of isomers) [Example 145, cis-3-[(4-fluorophenoxy)methyl]-4-methyl-2-[6-methyl-3-(2H-1,2,3-triazol-2-yl)pyrazine-2-carbonyl]-2-azabicyclo[3.1.1]heptane], the “OX1 pKi (SPA binding)” value in experiment [1] (Table 2, [3H]SB-674042 2 nM) is on record as 7.03. The “OX2 pKi (SPA binding)” value in experiment [2] (Table 2, [3H]EMPA 2 nM) worked out at 5.62.

Take `Cc1ccc(-n2nccn2)c(C(=O)N2C3CC(C3)[C@@H](C)C2CNc2cnc3cc(F)ccc3n2)n1` (single isomer, unassigned) [Example 200, 6-fluoro-N-{[(3R,4S) or (3S,4R)-4-methyl-2-[6-methyl-3-(2H-1,2,3-triazol-2-yl)pyridine-2-carbonyl]-2-azabicyclo[3.1.1]heptan-3-yl]methyl}quinoxalin-2-amine]: the “OX1 pKi (SPA binding)” value in experiment [1] (Table 2, [3H]SB-674042 2 nM) is listed as 8.24. For the same compound, the “OX2 pKi (SPA binding)” value in experiment [2] (Table 2, [3H]EMPA 2 nM) is 6.37.

Consider `Cc1ccc(-n2nccn2)c(C(=O)N2C3CC(C3)[C@H](C)C2COc2ccc(F)cc2)n1` (stereo partly drawn) [Example 103, trans-3-[(4-fluorophenoxy)methyl]-4-methyl-2-[6-methyl-3-(2H-1,2,3-triazol-2-yl)pyridine-2-carbonyl]-2-azabicyclo[3.1.1]heptane], for which the “OX1 pKi (SPA binding)” value in experiment [1] (Table 1, [3H]SB-674042 2 nM) is 8. For the same compound, in experiment [2] (Table 1, [3H]EMPA 2 nM), the “OX2 pKi (SPA binding)” value was 5.6.

In the case of `Cc1ccc(-c2nccs2)c(C(=O)N2C3CC(C3)[C@H](C)C2COc2ccc(F)cc2)n1` (mixture of isomers) [Example 106, trans-3-[(4-fluorophenoxy)methyl]-4-methyl-2-[6-methyl-3-(1,3-thiazol-2-yl)pyridine-2-carbonyl]-2-azabicyclo[3.1.1]heptane], in experiment [1] (Table 1, [3H]SB-674042 2 nM), the “OX1 pKi (SPA binding)” value is reported as 8.16. In addition, the “OX2 pKi (SPA binding)” value in experiment [2] (Table 1, [3H]EMPA 2 nM) was found to be 6.12.

Turning to `Cc1ccc(-n2nccn2)c(C(=O)N2C3CC(C3)[C@@H](C)C2CNc2cnc(C(F)(F)F)cn2)c1` (single isomer, unassigned) [Example 256, N-{[(3R,4S) or (3S,4R)-4-methyl-2-[5-methyl-2-(2H-1,2,3-triazol-2-yl)benzoyl]-2-azabicyclo[3.1.1]heptan-3-yl]methyl}-5-(trifluoromethyl)pyrazin-2-amine], the “OX1 pKi (SPA binding)” value in experiment [1] (Table 2, [3H]SB-674042 2 nM) is reported as 8.75. In experiment [2] (Table 2, [3H]EMPA 2 nM), the “OX2 pKi (SPA binding)” value was 5.18.

On to `Cc1nc(C(=O)N2C(CNc3ccc4ccccc4n3)CC3CC2C3)c(-c2ccccc2)s1` (centres unmarked) [Example 60, N-{[2-(2-methyl-5-phenyl-1,3-thiazole-4-carbonyl)-2-azabicyclo[3.1.1]heptan-3-yl]methyl}quinolin-2-amine], for which the “OX1 pKi (SPA binding)” value in experiment [1] (Table 1, [3H]SB-674042 2 nM) was determined as 8.27. For the same compound, the “OX2 pKi (SPA binding)” value in experiment [2] (Table 1, [3H]EMPA 2 nM) is 7.39.

For `Cc1ccc(-n2nccn2)c(C(=O)N2C3CC(C3)[C@@H](C)C2CNc2nc3ccccc3o2)n1` (single isomer, unassigned) [Example 227, N-{[(3R,4S) or (3S,4R)-4-methyl-2-[6-methyl-3-(2H-1,2,3-triazol-2-yl)pyridine-2-carbonyl]-2-azabicyclo[3.1.1]heptan-3-yl]methyl}-1,3-benzoxazol-2-amine], in experiment [1] (Table 2, [3H]SB-674042 2 nM), the “OX1 pKi (SPA binding)” value is 7.11. Also, in experiment [2] (Table 2, [3H]EMPA 2 nM), the “OX2 pKi (SPA binding)” value is given as 4.9.

For the compound `C[C@@H]1C2CC(C2)N(C(=O)c2cc(F)ccc2-n2nccn2)C1CNc1ncc(C(F)(F)F)cn1` (some centres unmarked) [Example 251], the “OX1 pKi (SPA binding)” value in experiment [1] (Table 2, [3H]SB-674042 2 nM) is given as 7.65. Further, the “OX2 pKi (SPA binding)” value in experiment [2] (Table 2, [3H]EMPA 2 nM) is 4.69.

In the case of `C[C@@H]1C2CC(C2)N(C(=O)c2cc(Cl)ccc2-n2nccn2)C1CNc1nc2cccnc2o1` (mixture of isomers) [Example 242, cis-N-({2-[5-chloro-2-(2H-1,2,3-triazol-2-yl)benzoyl]-4-methyl-2-azabicyclo[3.1.1]heptan-3-yl}methyl)-[1,3]oxazolo[5,4-b]pyridin-2-amine], the “OX1 pKi (SPA binding)” value in experiment [1] (Table 2, [3H]SB-674042 2 nM) is 8.1. In experiment [2] (Table 2, [3H]EMPA 2 nM), the “OX2 pKi (SPA binding)” value came out at 5.14.

Turning to `C[C@@H]1C2CC(C2)N(C(=O)c2ccc(Cl)cc2-n2nccn2)C1CNc1cnc(C(F)(F)F)cn1` (mixture of isomers) [Example 246, cis-N-({2-[4-chloro-2-(2H-1,2,3-triazol-2-yl)benzoyl]-4-methyl-2-azabicyclo[3.1.1]heptan-3-yl}methyl)-5-(trifluoromethyl)pyrazin-2-amine], in experiment [1] (Table 2, [3H]SB-674042 2 nM), the “OX1 pKi (SPA binding)” value is given as 7.57. For the same compound, in experiment [2] (Table 2, [3H]EMPA 2 nM), the “OX2 pKi (SPA binding)” value turned out to be 5.61.

With `Cc1nc(C(=O)N2C3CC(C3)[C@@H](C)[C@@H]2COc2cc3ccccc3cn2)c(-c2ccccc2)s1` (single isomer, unassigned) [Example 86, 3-{[(3R,4R or 3S,4S)-4-methyl-2-(2-methyl-5-phenyl-1,3-thiazole-4-carbonyl)-2-azabicyclo[3.1.1]heptan-3-yl]methoxy}isoquinoline], the Ki was 89.1 nM in experiment [1] (Table 1, [3H]SB-674042 2 nM, read-out: OX1 pKi (SPA binding) (converted)) and 1290 nM in experiment [2] (Table 1, [3H]EMPA 2 nM, read-out: OX2 pKi (SPA binding) (converted)).

On to `Cc1nc(C(=O)N2C(COc3cnc4ccccc4n3)CC3CC2C3)c(-c2ccccc2)s1` (centres unmarked) [Example 58], for which the “OX1 pKi (SPA binding)” value in experiment [1] (Table 1, [3H]SB-674042 2 nM) stood at 7.4. For the same compound, the “OX2 pKi (SPA binding)” value in experiment [2] (Table 1, [3H]EMPA 2 nM) amounted to 6.76.

For the compound `C[C@@H]1C2CC(C2)N(C(=O)c2cc(Cl)ccc2-n2nccn2)C1CNc1ccc(C(F)(F)F)nn1` (stereo partly drawn) [Example 247, cis-N-({2-[5-chloro-2-(2H-1,2,3-triazol-2-yl)benzoyl]-4-methyl-2-azabicyclo[3.1.1]heptan-3-yl}methyl)-6-(trifluoromethyl)pyridazin-3-amine], in experiment [1] (Table 2, [3H]SB-674042 2 nM), the “OX1 pKi (SPA binding)” value is given as 6.74. Moreover, the “OX2 pKi (SPA binding)” value in experiment [2] (Table 2, [3H]EMPA 2 nM) was found to be 4.88.

Turning to `Cc1ccc(OCC2CC3CC(C3)N2C(=O)c2nc(C)sc2-c2ccccc2)cc1` (centres unmarked) [Example 48], the “OX1 pKi (SPA binding)” value in experiment [1] (Table 1, [3H]SB-674042 2 nM) is listed as 7.45. The “OX2 pKi (SPA binding)” value in experiment [2] (Table 1, [3H]EMPA 2 nM) came out at 6.53.

Regarding `C[C@@H]1C2CC(C2)N(C(=O)c2cc(C#N)ccc2-n2nccn2)C1COc1ccc(F)cc1` (mixture of isomers) [Example 142, cis-3-{3-[(4-fluorophenoxy)methyl]-4-methyl-2-azabicyclo[3.1.1]heptane-2-carbonyl}-4-(2H-1,2,3-triazol-2-yl)benzonitrile], the “OX1 pKi (SPA binding)” value in experiment [1] (Table 2, [3H]SB-674042 2 nM) is given as 7. Further, the “OX2 pKi (SPA binding)” value in experiment [2] (Table 2, [3H]EMPA 2 nM) came to 6.33.

For the compound `C[C@@H]1C2CC(C2)N(C(=O)c2nn(C)cc2-c2ncccn2)C1CNc1cnc(C(F)(F)F)cn1` (mixture of isomers) [Example 245, cis-N-({4-methyl-2-[1-methyl-4-(pyrimidin-2-yl)-1H-pyrazole-3-carbonyl]-2-azabicyclo[3.1.1]heptan-3-yl}methyl)-5-(trifluoromethyl)pyrazin-2-amine], in experiment [1] (Table 2, [3H]SB-674042 2 nM), the “OX1 pKi (SPA binding)” value is given as 7.55. Besides, in experiment [2] (Table 2, [3H]EMPA 2 nM), the “OX2 pKi (SPA binding)” value was determined as 4.49.

Consider `Cc1nc(C(=O)N2C3CC(C3)[C@@H](C)C2COc2ccc(F)cc2)c(-c2cnccn2)s1` (mixture of isomers) [Example 136, cis-3-[(4-fluorophenoxy)methyl]-4-methyl-2-[2-methyl-5-(pyrazin-2-yl)-1,3-thiazole-4-carbonyl]-2-azabicyclo[3.1.1]heptane], for which, in experiment [1] (Table 2, [3H]SB-674042 2 nM), the “OX1 pKi (SPA binding)” value amounted to 7.26. The “OX2 pKi (SPA binding)” value in experiment [2] (Table 2, [3H]EMPA 2 nM) came to 5.92.
